# Results published in patent publication US11219625B2, “Inhibitors of N-linked glycosylation and methods using same” (YALE UNIVERSITY, priority 2015, dated 2022).
# How the values were obtained:
# OST = target: T1, OST (Canis lupus familiaris, UniProt F1PJP5); experiment: Cell free OST inhibition, canine pancreas microsomes with in vitro translation of pSAP mRNA; assay type: biochemical; details: FIG. 2D
# T1 construct: rabbit reticulocyte lysate translation system supplemented with canine pancreas rough microsomes (cRM); from tissue; host or cells: canine pancreas rough microsomes
# T1 sequence (F1PJP5 1-705): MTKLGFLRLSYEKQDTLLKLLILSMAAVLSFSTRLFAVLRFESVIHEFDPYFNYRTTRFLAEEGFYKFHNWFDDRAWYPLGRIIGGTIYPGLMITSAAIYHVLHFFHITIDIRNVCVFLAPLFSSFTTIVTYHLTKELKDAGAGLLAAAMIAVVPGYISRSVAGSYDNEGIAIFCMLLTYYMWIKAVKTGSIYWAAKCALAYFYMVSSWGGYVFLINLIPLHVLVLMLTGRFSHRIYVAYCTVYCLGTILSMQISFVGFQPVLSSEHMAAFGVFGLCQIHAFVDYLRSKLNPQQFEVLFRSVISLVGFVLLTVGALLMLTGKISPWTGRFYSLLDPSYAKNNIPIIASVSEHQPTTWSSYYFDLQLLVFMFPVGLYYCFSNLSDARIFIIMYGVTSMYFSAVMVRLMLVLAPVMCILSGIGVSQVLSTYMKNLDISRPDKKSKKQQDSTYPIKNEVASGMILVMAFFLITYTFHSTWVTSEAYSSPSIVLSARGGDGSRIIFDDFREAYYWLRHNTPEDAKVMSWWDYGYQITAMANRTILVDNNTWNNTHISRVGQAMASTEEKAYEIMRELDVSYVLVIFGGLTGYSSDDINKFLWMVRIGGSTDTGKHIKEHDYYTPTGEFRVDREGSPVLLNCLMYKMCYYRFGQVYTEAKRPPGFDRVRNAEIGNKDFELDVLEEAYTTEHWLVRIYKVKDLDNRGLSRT
# Method: FIGS. 2A-2I illustrate the finding that NGI-1 blocks OST function. FIG. 2A illustrates the western blots of glycosylated luciferase (Luc) after treatment with 1 μM tunicmaycin (Tn) and 10 μM NGI-1 in CHO-Lec15 and CHO-Lec35 cells with stable expression of ER-LucT. FIG. 2B is a […] illustrating FACE analysis of lipid linked oligosaccharides (LLOs). FIG. 2C is a series of western blots illustrating the effects of NGI-1 (5 μM) on free oligosaccharides (left panel) and N-linked glycans cleaved from peptides with Peptide-N-Glycosidase F (right panel). Carbohydrate size is indicated with glucose markers (G4-G7). FIG. 2D is a western blot illustrating cell free inhibition of the OST using a rabbit reticulocyte lysate translation system supplemented with canine pancreas rough microsomes (cRM). […] FIGS. 2G-2H: Dose response and quantitation of NGI-1 effect on pSAP (squares) and SHBG glycosylation (circles). […]
# The OST is an ER resident multi-subunit complex that cleaves LLOs and transfers the oligosaccharide to a protein encoded N-linked glycosylation consensus sequence (NXT/S). […] Both enzymatic products of the OST, free glycans and protein glycans, were therefore determined with and without NGI-1 treatment using optimized conditions in streptolysin-O permeabilized CHO cells (FIG. 2C). […]
# PC9 cells = experiment: Apoptosis by flow cytometry (Annexin-V, 7-AAD), PC9; assay type: cell-based; details: PC9, NGI-1 10 μM for 2 or 5 days, or Tn 1 μM
# Method: Analysis of apoptosis susceptibility in A549 and PC9 NSCLC cell lines followed treatment with NGI-1 10 μM or Tn 1 μM for 2 days was done by flow cytometry after staining the cells with Annexin-V (early apoptosis) and 7-AAD (viability dye). […] FIG. 9C: Western blot of BIP protein for A549 and PC9 cells after treatment with 10 μM NGI-1 for 6, 12 or 24 h. The expression of GAPDH was used as a loading control.
# H3255 cells = experiment: Cell cycle distribution by flow cytometry, H3255; assay type: cell-based; details: H3255, NGI-1 24 h, p<0.05
# Method: FIGS. 7A-7D illustrate EGFR kinase domain mutant cell lines growth inhibition and cell cycle arrest response to NGI-1. FIG. 7A illustrates MTT assays to determine the effects of NGI-1 on growth of H3255 cells. FIG. 7B illustrates MIT assays to determine the effects of NGI-1 on growth of HCC827 cells. EGFR kinase domain mutant cell lines H3255 and HCC827 cells were untreated or treated with 10 μM NGI-1 for 5 d. […] FIG. 7C illustrates cell cycle distribution of H3255 after 24 h NGI-1 treatment for 24 h determined by flow cytometry. FIG. 7D illustrates cell cycle distribution of HCC827 after 24 h NGI-1 treatment for 24 h determined by flow cytometry.
# For the assessment of cell cycle distribution, 1×10^6 cells were collected, washed once with ice-cold PBS and fixed in ice-cold 70% ethanol overnight at −20° C. Thereafter, cells were washed twice with PBS and incubated for 30 min at room temperature in 200 μL of Guava Cell Cycle Reagent (Guava Technologies). Cytofluorometric acquisitions were performed on a LSRII cytometer (BD Biosciences). First-line analysis was performed with Flow Jo software, upon gating on the events characterized by normal forward and side scatter parameters and discrimination of doublets in a FSC-A vs. FSC-H bivariate plot. Approximately 30,000 cells were analyzed per experiment, and the mean value was obtained from 3 independent assays.
compound,measurement,setting,value
"Cc1cnc(NC(=O)c2cc(S(=O)(=O)N(C)C)ccc2N2CCCC2)s1 [NGI-1, 5-(N,N-Dimethylsulfamoyl)-N-(5-methylthiazol-2-yl)-2-(pyrrolidin-1-yl)benzamide]","inhibition of pSAP N-linked glycosylation, cell free",OST,dose dependent inhibition of pSAP N-linked glycosylation
same,induction of apoptosis,PC9 cells,did not induce apoptosis
same,cell cycle distribution,H3255 cells,undergo G1 arrest
